This note sets out measurements from patent US5677282A (Proscript, Inc., priority 1995, dated 1997).

Test [1] concerns bovine cartilage explants. As to the kind of experiment: Bovine cartilage explant assay (35S-GAG release, rhIL-1α stimulated). The class given is cell-based. The note with it: Bos taurus, rhIL-1α 5 ng/mL, 3-4 days culture, read-out: % inhibition (concentration [μM]) of cartilage degradation. The text has this:
A tissue culture assay was used to measure the ability of the compounds of the present invention to slow the degradation of the extracellular matrix by metalloproteinases. This assay measured the amount of ^35 S-glycosaminoglycan (^35 S-GAG) released from labeled bovine cartilage explants.
Knee joints from a 1 to 3 week old calf were obtained immediately after sacrifice from the Abattoir and then transported on ice. The intact joints were washed well with tap water and soaked in 50% (v/v) Povidine iodine solution, obtained from Burre National, Inc., Baltimore, Md. All subsequent steps were performed in a laminar flow tissue culture hood using standard sterile technique. The joint was immobilized in a shank holder and the joint capsule was cut open to expose the articular cartilage. Cartilage explant plugs, approximately 15 mg wet weight, were removed from the flat articulating surfaces in the lower-most region of the knee joint using a sterile steel cork-borer and collected in a 250 mL roller bottle containing about 100 mL fresh Delbecco's minimum essential medium (DMEM), obtained from Gibco BRC, Life Technologies, Gaithersburg, Md., containing 4.5 g/l (D)-glucose and (L)-glutamine, without sodium pyruvate. The fresh media also contained enough Hepes buffer and sodium bicarbonate such that the pH was about 7.4. The media was then further supplemented just before use with 100 units Penicillin, 100 μg Streptomycin, and 50 μg (L)-ascorbic acid per mL of medium.
Once collected, the explant plugs were washed four times with 50 mL fresh DMEM. The plugs were then placed in the incubator for a minimum of 1 hour to equilibrate, before proceeding to make disks from the articulating surface of each plug. A 1 mm thick disk was sliced from individual plugs from the end that was the articulating surface of the joint. The plug was held steady in the sterile template (4 mm diameter×1.5 mm deep) using sterile forceps. A scalpel blade was used to carefully slice off the disk. Only the superficial articulating surface responded well in culture.
Individual disks obtained were transferred to a tissue culture flask containing about 100 mL fresh media. The flask containing the disks was placed in an incubator at 37° C. (with 5% CO2, 95% air) and allowed to equilibrate overnight and at least one additional day before labeling. When ready to label, the old media was replaced with 50 mL fresh media containing about 500 μCi ^35 S-Sodium Sulfate. The plugs were labeled in bulk for about 48 hours. The next morning, the "hot" media was removed and replaced with fresh "cold" media. The disks were again allowed to equilibrate overnight before being used for actual experiments.
The media in which the disks were stored was changed immediately prior to performing the assay. The disks were then returned to the incubator until the test media and the two control media had been prepared. The test media consisted of the desired concentration of a compound being tested for its ability to inhibit extracellular matrix degradation and concomitant recombinant human Interleukin rhIL-1α (5 ng/mL) in fresh DMEM solution. The control media were identical to the test media, except that the first control media lacked rhIL-1α and the second control media lacked the test compound. 250 μL of each of the test and control media were transferred to separate 96-well TC plates. Flamed forceps were used to transfer a disk from the incubator to each 96-well TC plates that had been filled with either the test media or one of the two control media.
The TC plates were then placed in the incubator and cultured for 3-4 days (initial incubation with rhIL-1α alpha takes at least 3 days to stimulate endogenous metalloproteinases). A 50 μL aliquot of media from each TC plate was saved and counted. The rest of the media was removed with a suction device.
The cartilage disks from each TC plate were also saved for counting. […]

In a further test the target is T1, 72 kD gelatinase (Homo sapiens, UniProt P08253).
T1 sequence (P08253 110-660): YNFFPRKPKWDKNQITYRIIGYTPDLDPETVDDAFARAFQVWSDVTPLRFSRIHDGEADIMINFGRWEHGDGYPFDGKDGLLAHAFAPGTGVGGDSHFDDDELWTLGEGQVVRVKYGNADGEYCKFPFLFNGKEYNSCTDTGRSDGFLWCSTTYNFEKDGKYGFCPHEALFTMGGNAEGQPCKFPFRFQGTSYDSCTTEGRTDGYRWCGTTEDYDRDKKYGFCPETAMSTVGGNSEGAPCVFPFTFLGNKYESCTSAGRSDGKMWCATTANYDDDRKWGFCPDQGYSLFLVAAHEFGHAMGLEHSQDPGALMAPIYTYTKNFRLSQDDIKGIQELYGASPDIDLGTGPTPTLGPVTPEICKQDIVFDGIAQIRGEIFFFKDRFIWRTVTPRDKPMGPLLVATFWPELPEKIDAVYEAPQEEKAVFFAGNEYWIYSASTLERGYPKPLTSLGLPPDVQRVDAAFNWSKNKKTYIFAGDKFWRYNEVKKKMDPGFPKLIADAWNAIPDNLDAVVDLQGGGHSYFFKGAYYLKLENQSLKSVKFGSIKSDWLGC
As to the kind of experiment: Assay of 72 KD gelatinase inhibition activity. As to conditions: 72KD gelatinase 180 pM, H-150 buffer pH 7.4; read-out: Ki(app). The class given is biochemical. The method, then:
H-150 buffer, pH 7.4, was prepared by CaCl2 H2O (1.47 grams), NaCl (8.77 grams) and N-[2 -hydroxyethyl]piperazine-N'-[2-ethanesulfonic acid](23.83 grams) to distilled and deionized water and then bring the final volume of the solution to 1 liter. An reaction mixture having a final volume of 250 μL was prepared with H-150 buffer, 40 μgrams of Pro-72KD gelatinase (Strongin, et al., J. Biol. Chem. 268:14033 (1993); Goldberg, et al., J. Biol. Chem., 267:4583 (1992); Kleiner, et al., Biochemistry 32:1583 (1993)) and p-aminophenyl mercuric acetate (Sigma Chemical Co., St. Louis, Mo.) (1 mM). The reaction mixture was then incubated for 3 hours at 25° C.
The reaction mixture was applied to a NAP-5 column (G-25 SEPHADEX™, Pharmacia). Fractions containing […] were identified using 12% SDS polyacrylamide gel electrphoresis and concentrated to about 100-200 μliters by centrifigation (5000 g, 15 minutes).
A solution containing H-150 buffer (2.0 mL), 72KD gelatinase (180 pM) and ethylphenolpoly(ethylene-glycolether)n (Boerhringer Mannheim) (1.3 μM) was prepared in a stirred cuvette. Coumarin peptide substrate (2 μL of a 1 mM solution in dimethyl sulfoxide) was added to the reaction mixture. The rate of hydrolysis was determined for about 100-200 seconds by measuring the fluorescence of the reaction at ex328 nanometers and […] using a Hitachi F-2000 Fluorescence Spectrophotometer.
2 μL of a 10 mM inhibitor stock solution (in dimethyl sulfoxide) is added and the reduction in the rate of hydrolysis is determined. Additional 2 μL aliquots of the stock inhibitor solution is added until a 30% to 70% inhibition is observed. Ki is calculated on the assumption of simple competitive inhibition and that the substrate concentration is much less than Km.

As for `CC(C)[C@H](NC(=O)[C@H](Cc1ccccc1)NC(=O)OCc1ccccc1)C(=O)Nc1n[nH]c(=S)s1` [5-(N-benzyloxycarbonyl-phenylalanyl-valylamino)-1,3,4-thiadiazole-2-thione], the inhibition at 10 µM in test [1] (10 μM compound) came out at 40%. Moreover, the Ki on 72 kD gelatinase was 4.6 nM.
Turning to `CC(C)C[C@H](NC(=O)[C@H](Cc1ccccc1)NC(=O)OCc1ccccc1)C(=O)Nc1n[nH]c(=S)s1` [5-(N-benzyloxycarbonyl-phenylalanyl-leucylamino)-1,3,4-thiadiazole-2-thione], the inhibition at 50 µM in test [1] (50 μM compound) amounted to 33%. Besides, the Ki at 72 kD gelatinase is 1.95 nM.
Turning to `O=C(N[C@@H](Cc1ccc(OCc2ccccc2)cc1)C(=O)N[C@H](C(=O)Nc1n[nH]c(=S)s1)c1ccccc1)OCc1ccccc1`, in test [1] (25 μM compound), the inhibition at 25 µM turned out to be 20%. Further, on 72 kD gelatinase, the Ki came out at 0.145 nM.
